Article PMC6749418, “SAR by Space: Enriching Hit Sets from the Chemical Space” (Molecules, 2019)
Like-named read-outs stand apart in the source and are kept apart here. Each block holds one compound with its values, some of them ahead of it.

How the values were obtained:
BRD4 = details: cited from earlier work
bromodomain 1 of BRD4 = tested on: T1, bromodomain 1 of BRD4; assay: Thermal shift assay (TSA) with recombinant, truncated, His-tagged bromodomain 1 of BRD4; format: binding; details: 1% DMSO, 4 μM protein; for ΔTm (°C) at 10 μM: compound at 10 μM; for ΔTm (°C) at 20 μM: compound at 20 μM; for ΔTm (°C) at 40 μM: compound at 40 μM
T1 construct: made in house
Method: The compounds were synthesized according to the standard protocols for typical parallel synthesis transformations, including amide/sulfonamide coupling, reductive amination, urea synthesis, arylation/alkylation, etc. The synthesis was completed in a three-week period and all the 32 compounds could actually be synthesized. The products obtained were subjected to thermal shift assay (TSA) using recombinant, truncated, His-tagged bromodomain 1 of BRD4 [28] at 40, 20, and 10 μM (Figure 4). The hit selection criteria followed those described in our previous publication:|ΔTm| ≥ |ΔTm,av| + 3|σ(ΔTm)|(1) |ΔTm| ≥ 2|σ(Tm,DMSO)|(2) where ΔTm—thermal shift caused by the compound; ΔTm,av—mean thermal shift value within the plate; σ(ΔTm)—standard deviation of the thermal shift values within the plate; σ(Tm,DMSO)—standard deviation of the melting temperature values obtained for the control samples.
All tested compounds were obtained from Enamine Ltd. (Kyiv, Ukraine). Stock solutions of the tested compounds were prepared in 100% DMSO and were stored at −20 °C until use. The bromodomain 1 of BRD4 was expressed using pNIC28-Bsa4 plasmid vector with an insert representing domain 1 of BRD4 (44–168 AA, sequence entry O60885.1 in UniProtKB Database), N-terminus His6-tag and 16-amino acid linker.
All thermal shift assay (TSA) experiments with BRD4 protein were performed using ViiA™7 real-time PCR System equipped with 384-well heat block (Applied Biosystems, Waltham, MA, USA). General TSA methodology was adopted from the literature and experimentally modified in order to optimize conditions for measuring BRD4 melting temperature shifts upon interaction with small molecules. The optimal buffer composition for the TSA procedure was determined as described previously. Buffer consisting of 50 mM Phosphate-Na, 100 mM NaCl, pH = 7.5 was selected for BRD4 screening in this study. Purified BRD4 protein was pre-mixed with SYPRO Orange dye (Thermo Fischer Scientific, Cat. S6650, 5000x stock, Waltham, MA, USA) to prepare a master mix at 4 μM protein and 6× dye concentrations. Tested compounds were added to the protein-dye master mix at 40, 20, or 10 μM at 1% final DMSO concentration and incubated at 4 °C for 1 h in MicroAmp® optical 384-well reaction plates (ThermoFisher, Cat. 4309849, Waltham, MA, USA) sealed with optical sealing film (ThermalSeal RT2, Excel Scientific, Cat. TS-RT2, Victorville, CA, USA). The volumes of all reaction mixtures were 10 µL ([…]). The reaction plates were then kept at ambient temperature (22–24 °C) for an additional 15 min to ensure protein-compound interactions. Thermal scanning was performed by raising the temperature to 40 °C at 1.6 °C/min without signal detection followed by 40 °C to 90 °C temperature ramp at 0.05 °C/s with constant fluorescence intensity reading at 1-sec intervals using EX470/EM623 nm filter set.
Primary screening of the whole test set of 49 compounds was carried out in singletons. The raw data of dye fluorescence intensity change upon protein melt were exported using the ViiA7 RUO software (Applied Biosystems/Thermo Fischer Scientific). Further data visualization, curve fitting, melting temperature calculations on the raw fluorescence data were performed using custom-made Microsoft Excel scripts. The peak of the first derivative for the fluorescence curve was used to define melting temperature (Tm). Averaged Tm values for the control wells containing only the protein, dye and 1% DMSO were used as a reference point to determine melting temperature shifts (ΔTm).

BRD4 (BD1+BD2) = biological target: T2, BRD4 (BD1+BD2) (Homo sapiens, UniProt O60885); assay: BRD4 (BD1+BD2) TR-FRET assay, IC50 measurement; format: biochemical; details: average from three independent experiments
T2 construct: BRD4 (BD1+BD2) TR-FRET assay kit from BPS Bioscience; purchased BPS Bioscience
Method: Dose-response curves were built for these compounds, and for 5 of them, IC50 values were determined in TR-FRET assay as an average from three independent experiments (Table 1). Comparing the resulting hit molecules with the corresponding initial queries, one can see considerable structural differences. […] The relatively high FTrees similarity explains why they were not missed in the REAL Space search: The molecules still have very similar pharmacophoric properties in a similar arrangement. […] This is exemplary shown in Figure 7 for compound 20 and its respective query molecule 15. The shift of the nitrogen atom to the β position of the pyridine ring, as well as the different linker length, led to a completely flipped binding mode. It is also important to stress that the starting points of this study which led to the hits (compounds 19–22) had no significant activity against BRD4 in the functional (TR-FRET) assay; they were identified only in the binding assay (TSA).
All TR-FRET assays and IC50 measurements were performed using BRD4 (BD1+BD2) TR-FRET assay kit from BPS Bioscience (www.bpsbioscience.com) following the standard procedure.

[1] = investigational BRD4 inhibitors, Figure 1

Structure (SMILES): COc1nnc2ccc(N3CCC(c4ccc(OCCN5CCN(C)C(=O)[C@H]5C)cc4)CC3)nn12 [AZD5153]
IC50 (BRD4; [1]): 0.005 µM

Structure (SMILES): CCS(=O)(=O)Nc1ccc(Oc2ccc(F)cc2F)c(-c2cn(C)c(=O)c3[nH]ccc23)c1 [mivebresib, Mivebresib]
IC50 (BRD4; [1]): 0.001 to 0.002 µM

Structure (SMILES): O=C1CCc2cc(NC(=O)Nc3ccc(C(F)(F)F)cc3)ccc2N1 [compound 32]
inhibition at 10 μM (BRD4; 10 μM, known BRD4 inhibitors, Figure 6): up to 92%

Structure (SMILES): O=C1Nc2ccc(NS(=O)(=O)C3CCCCC3)cc2C12CCC2 [compound 31]
IC50 (BRD4; known BRD4 inhibitors, Figure 6): < 0.15 µM

Structure (SMILES): Cc1noc2c1-c1ccccc1C(c1ccc(Cl)cc1)=N[C@H]2CC(N)=O [CPI-0610]
IC50 (BRD4; [1]): 0.018 µM

Now from value to compound, other results behind:

IC50 (BRD4 (BD1+BD2)): 68.2 µM
Structure (SMILES): CC(C)(CNc1ccc2nnc(C(F)(F)F)n2n1)c1cccnc1 [C00007]
ΔTm (°C) at 10 μM (bromodomain 1 of BRD4): 0.34 ± 0.19 °C | ΔTm (°C) at 20 μM (bromodomain 1 of BRD4): 0.78 ± 0.14 °C | ΔTm (°C) at 40 μM (bromodomain 1 of BRD4): 1.56 ± 0.05 °C

IC50 (BRD4 (BD1+BD2)): 141 µM
Structure (SMILES): CCC1Oc2cc(C(C)NC(=O)Cc3c(C)nc4[nH][nH]c(=O)c4c3C)ccc2NC1=O (stereo not shown) [C00009]
ΔTm (°C) at 10 μM (bromodomain 1 of BRD4): 0.29 ± 0.01 °C | ΔTm (°C) at 20 μM (bromodomain 1 of BRD4): 0.44 ± 0.06 °C | ΔTm (°C) at 40 μM (bromodomain 1 of BRD4): 0.53 ± 0.25 °C

IC50 (BRD4 (BD1+BD2)): 26.4 µM
Structure (SMILES): CC1CC(=O)N(C)c2ccc(NC(=O)NCc3nc(N(C)C)no3)cc21 (stereo not shown) [C00004]
ΔTm (°C) at 10 μM (bromodomain 1 of BRD4): 0.30 ± 0.10 °C | ΔTm (°C) at 20 μM (bromodomain 1 of BRD4): 0.72 ± 0.41 °C | ΔTm (°C) at 40 μM (bromodomain 1 of BRD4): 1.52 ± 0.59 °C

IC50 (BRD4 (BD1+BD2)): 10.7 µM
Structure (SMILES): CC1(C)C(=O)Nc2ccc(C(=O)Nc3cc(Cl)c(O)cc3F)cc21 [C00002]
ΔTm (°C) at 10 μM (bromodomain 1 of BRD4): 0.31 ± 0.05 °C | ΔTm (°C) at 20 μM (bromodomain 1 of BRD4): 0.39 ± 0.08 °C | ΔTm (°C) at 40 μM (bromodomain 1 of BRD4): 0.71 ± 0.01 °C

IC50 (BRD4 (BD1+BD2)): 44.6 µM
Structure (SMILES): CC(C)(C)c1nnc2ccc(NCC(C)(C)c3cccnc3)nn12 [C00006]
ΔTm (°C) at 10 μM (bromodomain 1 of BRD4): 0.34 ± 0.13 °C | ΔTm (°C) at 20 μM (bromodomain 1 of BRD4): 0.98 ± 0.22 °C | ΔTm (°C) at 40 μM (bromodomain 1 of BRD4): 1.33 ± 0.17 °C
